Data on 38 molecules can be found in US20150080337A1, “N-CYCLOALKYL-N-[(TRISUBSTITUTEDSILYLPHENYL)METHYLENE]-(THIO)CARBOXAMIDE DERIVATIVES” (BAYER CROPSCIENCE, priority 2012, published 2015).

Data set [1] relates to Puccinia recondita. Description: In vivo test on Puccinia recondita (brown rust). Conditions: 500 ppm of active ingredient; wheat plants sprayed 24 hours before contamination; grading 12 days after contamination vs control plants. On the procedure:
(§1) The active ingredients tested are prepared by homogenization in a mixture of acetone/tween/DMSO, and then diluted with water to obtain the desired active material concentration.
(§2) Wheat plants (“Scipion” variety), sown in starter cups on a 50/50 peat soil pozzolana substrate and grown at 22° C., are treated at the 1 leaf stage (10 cm height) by spraying with the active ingredient prepared as described above. Plants, used as controls, are treated with the mixture of acetone/tween/DMSO/water not containing the active material.
After 24 hours, the plants are contaminated by spraying the leaves with an aqueous suspension of Puccinia recondita spores (100 000 spores per mL). The spores are collected from an infected plant and are suspended in water containing 2.5 mL/L of Tween 80 at 10%. The contaminated wheat plants are incubated for 24 hours at 20° C. and at 100% relative humidity, and then for 10 days at 20° C. and at 70-80% relative humidity.
(§3) Grading (% of efficacy) is carried out 12 days after the contamination, in comparison with the control plants.
Under these conditions, good (at least 70%) to excellent (at least 90%) protection is observed at a dose of 500 ppm of active ingredient with the following compounds from table C: […]

The nature of data set [2]: log P by HPLC on reversed-phase column (C 18), EEC Directive 79/831 Annex V.A8. In kind it is physicochemical. Conditions: HPLC C 18, 40° C., 0.1% aqueous formic acid and acetonitrile, gradient 10% to 90% acetonitrile. On the procedure:
In table 1, the log P values were determined in accordance with EEC Directive 79/831 Annex V.A8 by HPLC (High Performance Liquid Chromatography) on a reversed-phase column (C 18), using the method described below:
Temperature: 40° C.; Mobile phases: 0.1% aqueous formic acid and acetonitrile; linear gradient from 10% acetonitrile to 90% acetonitrile.
Calibration was carried out using unbranched alkan-2-ones (comprising 3 to 16 carbon atoms) with known log P values (determination of the log P values by the retention times using linear interpolation between two successive alkanones). lambda-max-values were determined using UV-spectra from 200 nm to 400 nm and the peak values of the chromatographic signals.
In table 2, M+H (Apcl+) and log P are defined as for table 1.

Data set [3] deals with Sphaerotheca fuliginea. Briefly: In vivo test on Sphaerotheca fuliginea (cucurbits powdery mildew). Conditions: 500 ppm of active ingredient; gherkin plants sprayed 24 hours before contamination; grading 12 days after contamination vs control plants. On the procedure:
The active ingredients tested are prepared by homogenization in a mixture of acetone/tween/DMSO and then diluted with water to obtain the desired active material concentration.
Gherkin plants (“Vert petit de Paris” variety), sown in starter cups on a 50/50 peat soil-pozzolana substrate and grown at 24° C., are treated at the Z11 cotyledon stage by spraying with the active ingredient prepared as described above. Plants, used as controls, are treated with the mixture of acetone/tween/DMSO/water not containing the active material.
After 24 hours, the plants are contaminated by spraying the cotyledons with an aqueous suspension of Sphaerotheca fuliginea spores (100 000 spores per mL). The spores are collected from infected plants. The contaminated gherkin plants are incubated at about 20° C. and at 70-80% relative humidity.
as §3
Under these conditions, good (at least 70%) to total protection is observed at a dose of 500 ppm of active ingredient with the following compounds from table A: […]

The subject of data set [4] is Uromyces appendiculatus. Briefly: In vivo preventive test on Uromyces appendiculatus (bean rust). Conditions: 500 ppm of active ingredient; bean plants sprayed 24 hours before contamination; grading 11 days after contamination vs control plants. The procedure:
as §1
Bean plants (“Saxa” variety), sown in starter cups on a 50/50 peat soil pozzolana substrate and grown at 24° C., are treated at the 2 leaf stage (9 cm height) by spraying with the active ingredient prepared as described above. Plants, used as controls, are treated with the mixture of acetone/tween/DMSO/water not containing the active material.
After 24 hours, the plants are contaminated by spraying the leaves with an aqueous suspension of Uromyces appendiculatus spores (150 000 spores per mL). The spores are collected from infected plants and are suspended in water containing 2.5 mL/L of Tween 80 at 10%. The contaminated bean plants are incubated for 24 hours at 20° C. and at 100% relative humidity, and then for 10 days at 20° C. and at 70-80% relative humidity.
Grading (% of efficacy) is carried out 11 days after the contamination, in comparison with the control plants.
Under these conditions, good (at least 70%) to total protection is observed at a dose of 500 ppm of active ingredient with the following compounds from table G: […]

For data set [5], the system named is Septoria tritici. Briefly: In vivo preventive test on Septoria tritici (wheat). Conditions: 500 ppm of active ingredient; wheat plants sprayed 24 hours before contamination; grading 24 days after contamination vs control plants. The procedure: as §1, §2
After 24 hours, the plants are contaminated by spraying the leaves with an aqueous suspension of cryopreserved Septoria tritici spores (500 000 spores per mL). The contaminated wheat plants are incubated for 72 hours at 18° C. and at 100% relative humidity, and then for 21 days at 90% relative humidity.
Grading (% of efficacy) is carried out 24 days after the contamination, in comparison with the control plants.
Under these conditions, good (at least 70%) to total protection is observed at a dose of 500 ppm of active ingredient with the following compounds from table F: […]

Where [6] appears, read: Table 1, compounds of formula (I).
Where [7] appears, read: Table 2, compounds of formula (II).

In general, logP refers to a log measure of how a compound divides between an organic and an aqueous phase. Read a low logP as a more hydrophilic compound. On to `CCc1nn(C)c(F)c1C(=O)N(Cc1ccccc1[Si](C)(C)c1ccccc1)C1CC1` [I.2], for which the Efficacy in data set [1] amounted to 83%; in data set [3], 100%. Also, the logP in data set [2] (setting [6]) is on record as 4.81. For the molecule `Cn1nc(C(F)F)c(C(=O)N(Cc2ccccc2[Si](C)(C)c2ccccc2)C2CC2)c1Cl` [I.5], the values for the Efficacy in data set [1] and in data set [3] were 83% and 79%, respectively. In data set [2] (setting [6]), this molecule showed a logP of 4.88. For `Cn1nc(C(F)F)c(C(=O)N(Cc2ccccc2[Si](C)(C)c2ccc(Cl)cc2)C2CC2)c1F` [I.6], the Efficacy in data set [4] was found to be 100%; in data set [1], 94%; in data set [3] it was 100%. In addition, the logP in data set [2] (setting [6]) was found to be 5.19.

Consider `Cn1cc(C(=O)N(Cc2ccccc2[Si](C)(C)c2ccc(Cl)cc2)C2CC2)c(C(F)F)n1` [I.7], for which the Efficacy in data set [4] was 86%; in data set [1] it was 78%; in data set [3], 70%. In data set [2] (setting [6]), this molecule returned a logP of 4.81. In the case of `Cc1cc(C(=O)N(Cc2ccccc2[Si](C)(C)c2ccc(Cl)cc2)C2CC2)c(C)o1` [I.9], in data set [2] (setting [6]), the logP is on record as 5.78. `Cn1cc(C(=O)N(Cc2ccccc2[Si](C)(C)c2ccc(Cl)cc2)C2CC2)c(C(F)F)c1` [I.10] returned a logP in data set [2] (setting [6]) of 5.19. `C[Si](C)(c1ccc(Cl)cc1)c1ccccc1CN(C(=O)c1ccsc1I)C1CC1` [I.11]: the logP in data set [2] (setting [6]) was found to be 5.81.

The molecule `Cc1nc(C(F)F)c(C(=O)N(Cc2ccccc2[Si](C)(C)c2ccc(Cl)cc2)C2CC2)s1` [I.12] registered a logP in data set [2] (setting [6]) of 5.31. The same measure, in the same setting: the figure for `Cn1nc(C(F)F)c(C(=O)N(Cc2ccccc2[Si](C)(C)c2ccc(-c3ccccc3)cc2)C2CC2)c1F` [I.13] is 5.71. Regarding `Cn1cc(C(=O)N(Cc2ccccc2[Si](C)(C)c2ccc(-c3ccccc3)cc2)C2CC2)c(C(F)F)n1` [I.14], the logP in data set [2] (setting [6]) is given as 5.36. On to `Cc1cc(C(=O)N(Cc2ccccc2[Si](C)(C)c2ccc(-c3ccccc3)cc2)C2CC2)c(C)o1` [I.15], for which, in data set [2] (setting [6]), the logP was found to be 6.39.

As for `C[Si](C)(c1ccc(-c2ccccc2)cc1)c1ccccc1CN(C(=O)c1ccsc1I)C1CC1` [I.16], in data set [2] (setting [6]), the log partition coefficient (logP) is given as 6.39.

Take `Cc1nc(C(F)F)c(C(=O)N(Cc2ccccc2[Si](C)(C)c2ccc(-c3ccccc3)cc2)C2CC2)s1` [I.17]: in data set [2] (setting [6]), the logP is given as 5.93. `Cn1cc(C(=O)N(Cc2ccccc2[Si](C)(C)c2ccc(-c3ccccc3)cc2)C2CC2)c(C(F)F)c1` [I.18] had a logP in data set [2] (setting [6]) of 5.68. Still for that read-out and setting: with `Cc1cc(C(=O)N(Cc2ccccc2[Si](C)(C)c2ccc(Oc3ccccc3)cc2)C2CC2)c(C)o1` [I.21] the figure was 6.33.

In data set [2] (setting [6]), `C[Si](C)(c1ccc(Oc2ccccc2)cc1)c1ccccc1CN(C(=O)c1ccsc1I)C1CC1` [I.22] had a logP of 6.36. On the same count and under the same terms, the figure for `Cn1cc(C(=O)N(Cc2ccccc2[Si](C)(C)c2ccc(Oc3ccccc3)cc2)C2CC2)c(C(F)F)c1` [I.23] is 5.62; for `Cc1nc(C(F)F)c(C(=O)N(Cc2ccccc2[Si](C)(C)c2ccc(Oc3ccccc3)cc2)C2CC2)s1` [I.24] it is 5.81; for `Cn1cc(C(=O)N(Cc2ccccc2[Si](C)(C)c2cccc3ccccc23)C2CC2)c(C(F)F)n1` [I.26] it is 4.83. In turn, `Cc1cc(C(=O)N(Cc2ccccc2[Si](C)(C)c2cccc3ccccc23)C2CC2)c(C)o1` [I.27] showed a logP in data set [2] (setting [6]) of 5.87. The same measure, in the same setting: with `Cn1cc(C(=O)N(Cc2ccccc2[Si](C)(C)c2cccc3ccccc23)C2CC2)c(C(F)F)c1` [I.28] the figure was 5.19; with `Cc1nc(C(F)F)c(C(=O)N(Cc2ccccc2[Si](C)(C)c2cccc3ccccc23)C2CC2)s1` [I.30], 5.31. `Cn1nc(C(F)F)c(C(=O)N(Cc2ccccc2[Si](C)(C)c2cccs2)C2CC2)c1Cl` [I.32] came in with an Efficacy in data set [4] of 71%. This molecule came in with a logP in data set [2] (setting [6]) of 4.72. `Cn1nc(C(F)F)c(C(=O)N(Cc2ccccc2[Si](C)(C)c2cccs2)C2CC2)c1F` [I.33]: the Efficacy in data set [5], in data set [4] and in data set [3] was 100% each time. Moreover, the log partition coefficient (logP) in data set [2] (setting [6]) is 4.61. In turn, `C[Si](C)(c1cccs1)c1ccccc1CN(C(=O)c1ccsc1I)C1CC1` [I.34] yielded a logP in data set [2] (setting [6]) of 5.28. The same measure, in the same setting: with `Cc1cc(C(=O)N(Cc2ccccc2[Si](C)(C)c2cccs2)C2CC2)c(C)o1` [I.35] the figure was 5.19; with `Cc1nc(C(F)F)c(C(=O)N(Cc2ccccc2[Si](C)(C)c2cccs2)C2CC2)s1` [I.36], 4.74; with `Cn1cc(C(=O)N(Cc2ccccc2[Si](C)(C)c2cccs2)C2CC2)c(C(F)F)c1` [I.37], 4.59.

`COc1ccc([Si](C)(C)c2ccccc2CN(C(=O)c2c(C(F)F)nn(C)c2F)C2CC2)cn1` [I.38] yielded a lipophilicity (logP) in data set [2] (setting [6]) of 4.13. `COc1ccc([Si](C)(C)c2ccccc2CN(C(=O)c2c(C(F)F)nn(C)c2Cl)C2CC2)cn1` [I.39] gave a logP in data set [2] (setting [6]) of 4.25. One may read the chromatographic logP as a lipophilicity value derived from retention on a column. A low value points to lower lipophilicity. As for `C[Si](C)(c1ccccc1)c1ccccc1CNC1CC1` [II.1, N-{2-[dimethyl(phenyl)silyl]benzyl}cyclopropanamine], the chromatographic logP in data set [2] (setting [7]) was found to be 1.95. `C[Si](C)(c1ccc(Cl)cc1)c1ccccc1CNC1CC1` [II.2, N-{2-[(4-chlorophenyl)(dimethyl)silyl]benzyl}cyclopropanamine] registered a chromatographic logP in data set [2] (setting [7]) of 2.07.

Take `C[Si](C)(c1ccc(-c2ccccc2)cc1)c1ccccc1CNC1CC1` [II.3, N-{2-[biphenyl-4-yl(dimethyl)silyl]benzyl}cyclopropanamine]: the chromatographic logP in data set [2] (setting [7]) was 2.39.

As for `C[Si](C)(c1ccc(Oc2ccccc2)cc1)c1ccccc1CNC1CC1` [II.4, N-{2-[dimethyl(4-phenoxyphenyl)silyl]benzyl}cyclopropanamine], the chromatographic logP in data set [2] (setting [7]) was determined as 2.42. As for `C[Si](C)(c1ccccc1CNC1CC1)c1cccc2ccccc12` [II.5, N-{2-[dimethyl(1-naphthyl)silyl]benzyl}cyclopropanamine], the chromatographic logP in data set [2] (setting [7]) came to 2.11.

`C[Si](C)(c1cccs1)c1ccccc1CNC1CC1` [II.6, N-{2-[dimethyl(2-thienyl)silyl]benzyl}cyclopropanamine] gave a chromatographic logP in data set [2] (setting [7]) of 1.76. In turn, `CC1CC1NCc1ccccc1[Si](C)(C)c1ccccc1` (stereo not shown) [II.7] returned a logP in data set [2] (setting [7]) of 2.70. As to `COc1ccc([Si](C)(C)c2ccccc2CNC2CC2)cn1` [II.8, N-{2-[(6-methoxypyridin-3-yl)(dimethyl)silyl]benzyl}cyclopropanamine], the chromatographic logP in data set [2] (setting [7]) was 1.86.
